The results in this text go back to ChEMBL document CHEMBL1152653, “5-Nitrofuranes and 5-nitrothiophenes with anti-Trypanosoma cruzi activity and ability to accumulate squalene” (Bioorg Med Chem, 2009).

Molecules are shown by their SMILES. pIC50: −log10 of the molar value. In brackets after ≈: the same amount, converted by molar mass.

In series [1] the test system is Trypanosoma cruzi. The series is described as follows: Increase in squalene biosynthesis in Trypanosoma cruzi tulahuen 2 epimastigotes at ID50 concentration per 8 x 10^6 cells/ml after 120 mins by HPLC analysis (Rvb=0.6 to 2.1 ug/ml). In kind it is functional.
The subject of series [2] is Trypanosoma cruzi. Nature of the series: Antitrypanosomal activity against Trypanosoma cruzi tulahuen 2 after 5 days. The class given is functional. The note with it: tulahuen 2, 120 h, read-out: ID50 (the source's name).
Series [3] can be described thus: Cytotoxicity against mouse J774 cells after 48 hrs by MTT assay. The note with it: read-out: ID50. The class given is cell-based.
Series [4] can be described thus: Selectivity index, ratio of IC50 for mouse J774 cells to ID50 for Trypanosoma cruzi tulahuen 2. In kind it is toxicity, cell-based. The note with it: J774 cells versus Trypanosoma cruzi Tulahuen 2, read-out: Selectivity Index.
In series [5] the test system is Aspergillus fumigatus. The series is described as follows: Antifungal activity against Aspergillus fumigatus ATCC 26934 after 48 hrs by broth microdilution technique. The class given is functional. The following applies: ATCC 26934, 48 h. A general note: Dilution methods test growth across graded concentrations, often in twofold steps.
Series [6] concerns Candida albicans. Nature of the series: Antifungal activity against Candida albicans ATCC 10231 after 48 hrs by broth microdilution technique. The class given is functional. The note with it: ATCC 10231, 48 h.
For series [7], the system named is Candida tropicalis. The series is described as follows: Antifungal activity against Candida tropicalis C131-2000 after 48 hrs by broth microdilution technique. In kind it is functional. The note with it: C131-2000, 48 h.
Series [8] has as its system Trypanosoma cruzi. The series is described as follows: Decrease in ergosterol biosynthesis in Trypanosoma cruzi tulahuen 2 epimastigotes at ID50 concentration per 8 x 10^6 cells/ml after 120 mins by HPLC analysis (Rvb=6.8 +/- 0.5 ug/ml). The class given is functional.
Series [9] concerns Trichophyton mentagrophytes. The series is described as follows: Antifungal activity against Trichophyton mentagrophytes ATCC 9972 after 48 hrs by broth microdilution technique. In kind it is functional. The note with it: ATCC 9972, 48 h.
In series [10] the test system is Cryptococcus neoformans. Nature of the series: Antifungal activity against Cryptococcus neoformans ATCC 32264 after 48 hrs by broth microdilution technique. In kind it is functional. The note with it: ATCC 32264, 48 h.
Series [11] concerns Trichophyton rubrum. Nature of the series: Antifungal activity against Trichophyton rubrum C113 after 48 hrs by broth microdilution technique. The note with it: C113, 48 h. The class given is functional.
In series [12] the test system is Aspergillus flavus. The series is described as follows: Antifungal activity against Aspergillus flavus ATCC 9170 after 48 hrs by broth microdilution technique. The note with it: ATCC 9170, 48 h. In kind it is functional.
In series [13] the test system is Trypanosoma cruzi. Nature of the series: Antitrypanosomal activity against Trypanosoma cruzi CL Brener after 5 days. In kind it is functional. The following applies: 120 h, read-out: ID50 (the source's name).
The test system of series [14] is Saccharomyces cerevisiae. Nature of the series: Antifungal activity against Saccharomyces cerevisiae ATCC 9763 after 48 hrs by broth microdilution technique. In kind it is functional. The following applies: ATCC 9763, 48 h.
In series [15] the test system is Nannizzia gypsea. Nature of the series: Antifungal activity against Microsporum gypseum C 115 after 48 hrs by broth microdilution technique. The class given is functional. The note with it: C 115, 48 h.
Series [16] concerns Aspergillus niger. The series is described as follows: Antifungal activity against Aspergillus niger ATCC 9029 after 48 hrs by broth microdilution technique. The following applies: ATCC 9029, 48 h. In kind it is functional.
The subject of series [17] is Trypanosoma cruzi. The series is described as follows: Ratio of ID50 for drug to ID50 for nifurtimox against Trypanosoma cruzi tulahuen 2 after 5 days. In kind it is functional.

In general, MIC refers to the smallest concentration in the dilution series that meets the test's criterion for growth inhibition. Lower therefore signals a more susceptible organism.

Molecule `O=C(/C=C/c1ccco1)N1CCN(C/C=C/c2ccccc2)CC1` yielded an Activity in series [1] of 0.6 µg/mL. In addition, in series [2], the pIC50 is < 4.60.
The corresponding values for `O=C(/C=C/c1ccc([N+](=O)[O-])o1)NCCO` are 0.6 µg/mL and 5.30.
As for `C=CCNC(=S)N/N=C/C=C/c1ccc([N+](=O)[O-])o1`, the CC50 at 48 h in series [3] amounted to 200 µM. Also, in series [4], the selectivity ratio was found to be 24.4. Besides, the MIC in [5], in series [6], in series [7], in series [9], in series [10] and in series [11] was > 250 µg/mL throughout. The minimal inhibitory concentration (MIC) in series [12], in series [14], in [15] and in [16] was > 250 µg/mL in each case. The values for the Activity in [1] and in series [8] were 15.9 µg/mL and 5.5 µg/mL, respectively. In addition, the pIC50 was 5.09 in series [2] and 5.19 in series [13].
In turn, `O=C(/C=C/c1ccc([N+](=O)[O-])o1)N1CCN(C/C=C/c2ccccc2)CC1` gave an Activity in series [1] of 0.6 µg/mL. Also, in [2], the pIC50 is 6.00. The Ratio in [17] was found to be 7.
Take `C[C@@H]1[C@H](O)[C@@H](C)/C=C/C=C/C=C/C=C/C=C/C=C/C=C/[C@H](O[C@@H]2O[C@H](C)[C@@H](O)[C@H](N)[C@@H]2O)C[C@@H]2O[C@](O)(C[C@@H](O)C[C@@H](O)[C@H](O)CC[C@@H](O)C[C@@H](O)CC(=O)O[C@H]1C)C[C@H](O)[C@H]2C(=O)O` [AMPHOTERICIN B]: the minimal inhibitory concentration (MIC) came to 0.5 µg/mL (≈ 0.541 µM) in [5]; 0.5 µg/mL (≈ 0.541 µM) in [6]; 0.5 µg/mL (≈ 0.541 µM) in [7]; 0.025 µg/mL (≈ 0.0271 µM) in series [9]; 0.25 µg/mL (≈ 0.271 µM) in series [10]; 0.025 µg/mL (≈ 0.0271 µM) in series [11]. The minimum inhibitory concentration (MIC) in series [12] came to 0.25 µg/mL (≈ 0.271 µM); in series [14] it was 0.5 µg/mL (≈ 0.541 µM); in [15] it was 0.05 µg/mL (≈ 0.0541 µM); in [16], 0.125 µg/mL (≈ 0.135 µM).
For the molecule `CC(=O)N1CCN(c2ccc(OCC3COC(Cn4ccnc4)(c4ccc(Cl)cc4Cl)O3)cc2)CC1` (configuration not stated) [KETOCONAZOLE], in series [3], the CC50 at 48 h is < 100 µM. The selectivity ratio in series [4] was < 10. Moreover, the MIC in series [5] was 0.78 µg/mL (≈ 1.47 µM); in [6], 1.56 µg/mL (≈ 2.94 µM); in series [7] it was 1.56 µg/mL (≈ 2.94 µM); in series [9], 0.025 µg/mL (≈ 0.047 µM); in series [10], 0.39 µg/mL (≈ 0.734 µM); in series [11], 0.01 µg/mL (≈ 0.0188 µM). Besides, the MIC is 1.56 µg/mL (≈ 2.94 µM) in series [12], 3.12 µg/mL (≈ 5.87 µM) in series [14], 0.04 µg/mL (≈ 0.0753 µM) in series [15] and 0.78 µg/mL (≈ 1.47 µM) in series [16].
For the molecule `CC1CS(=O)(=O)CCN1/N=C/c1ccc([N+](=O)[O-])o1` (configuration not stated) [NIFURTIMOX], the CC50 at 48 h in [3] came out at 316 µM. Further, in series [4], the selectivity ratio amounted to 41. In series [1], this molecule yielded an Activity of 0.6 µg/mL.
For the molecule `CN(C/C=C/C#CC(C)(C)C)Cc1cccc2ccccc12` [TERBINAFINE], the CC50 at 48 h in series [3] is 339 µM. Moreover, the selectivity ratio in [4] came to 19.9. In addition, the MIC turned out to be 0.5 µg/mL (≈ 1.72 µM) in [5]; 0.78 µg/mL (≈ 2.68 µM) in [6]; 1.56 µg/mL (≈ 5.35 µM) in series [7]; 0.075 µg/mL (≈ 0.257 µM) in series [9]; 0.25 µg/mL (≈ 0.858 µM) in [10]; 0.075 µg/mL (≈ 0.257 µM) in series [11]. The MIC in series [12] is 0.5 µg/mL (≈ 1.72 µM); in series [14], 0.5 µg/mL (≈ 1.72 µM); in [15] it was 0.125 µg/mL (≈ 0.429 µM); in series [16], 0.5 µg/mL (≈ 1.72 µM). Moreover, the Activity in series [1] was found to be 12 µg/mL; in [8], 2.7 µg/mL.
